The values below come from patent US12187715B2, “Small molecule activators of Tie-2” (EyePoint Pharmaceuticals, Inc., priority 2019, dated 2025).

Data set [1] is described as follows: HPLC purity analyses of aqueous solutions over time at room temperature (chemical stability). It is filed as physicochemical.
The test system of a further data set is phospho-Akt1 (pAkt). The data set can be described thus: Phospho-Akt activation assay in human umbilical vein endothelial cells (Western blot). It is filed as cell-based. On the procedure: The ability of the small molecule analogues as shown in EXAMPLES 1-3 to stimulate production of phospho-Akt1 (pAkt) was tested. Akt plays a critical role in controlling cell survival and apoptosis, and Akt phosphorylation is increased by the activation of Tie-2. Akt activation can be detected by an antibody that recognizes phosphorylation on the serine 473 residue on Akt.
HUVECs were seeded at 500,000 cells/mL in chemically-defined basal media, and supplemented with distinct growth factors (EGM-2). The following growth factors were required for survival and normal phenotypic expression of endothelial characteristics: fetal bovine serum 2%, hydrocortisone, human fibroblast growth factor-B, vascular endothelial growth factor, recombinant insulin growth factor R3, ascorbic acid, human epidermal growth factor, gentamicin sulfate, amphotericin B, and heparin. Cells were derived from one donor, cultivated in 10 cm dishes, and expanded upon reaching 90% confluence. After three passages, the cells were expanded and ready for testing.
The cells were seeded at 25,000 cells/mL in 6-well plates, and covered with 2 mL of complete media. The cells were fed on day 2 of culture with 2 mL of fresh EGM-2 media. 72 hours after plating, the cells were serum starved by rinsing twice with 2 mL of sterile phosphate buffered saline, and then placed at 37° C. for 3 hours in the presence of basal EGM-2 media (1.5 mL/well without growth factors). The serum starvation allowed the cells to become quiescent.
Compounds 2-4 were dissolved in distilled deionized water at the following concentrations: • Compound 2 (Molecular weight: 622.7): 31 mg/ml. • Compound 3 (Molecular weight: 622.7): 26 mg/ml. • Compound 4 (Molecular weight: 636.7): 32 mg/ml.
All compounds were stored at 4° C. […] Stock concentrations of the above molecules were made at a final working concentration of 1 mM. Specific microliter volumes of the working concentration were added to each 6 well plate at the following concentrations: 3, 10, and 30 micromolar (μM). Cells were treated for 30 minutes.
10× cell lysis buffer was diluted fresh with dH2O. The 1× cell lysis buffer contained: 20 mM Tris-HCl (pH 7.5), 150 mM NaCl, 1 mM Na2EDTA, 1 mM EGTA, 1% Triton, 2.5 mM sodium pyrophosphate, 1 mM β-glycerophosphate, 1 mM Na3VO4, 1 μg/ml leupeptin, and 1 mM PMSF. Immediately before use, 1 mM PMSF was prepared by diluting from a stock of 1 M PMSF made up in DMSO. In addition, a 1× concentration of a Halt protease & phosphatase inhibitor cocktail was included. At the end of the 30 minute treatment, the media was discarded from the cell culture wells by shaking out, and the remaining media was aspirated off the wells. Ice-cold lysis buffer was added at 140 μL/well, and the culture was placed on ice or in a cold room for 30 minutes while rocking. Cell lysates were collected using a cell scraper, placed in microfuge tubes, and stored at −80° C. The levels of protein were quantitated using a microtiter plate BCA protein assay.
2× Laemmli sample buffer was added in equal volume to the […] cell lysis buffer, which contained the lysed endothelial cells. The solution was heated at 100° C. for 5 minutes and then sonicated for 10 seconds. After sonication, the lysates were spun by centrifuge at 4° C. for 5 minutes at 17,000 rpm. 70-100 μg of protein calculated from BCA assay prior to addition of 2× Laemmli sample were added per well of an 8% polyacrylamide gel.
Electrophoresis was performed at 150 volts for approximately 90 minutes at room temperature with 1× Laemmli running buffer. The proteins from the gel were transferred to nitrocellulose at 100 volts for 45 minutes on ice.
The nitrocellulose membranes were removed quickly without drying and placed in phosphate buffered saline (pH 7.3) with 1% nonfat dried milk. The membranes were blocked in the milk solution while rocking for 2 hours at room temperature or overnight at 4° C. […]
A general note: Immunoblotting shows a protein as a band on a membrane.

Data set [2] in a line: Physical stability (appearance) of the aqueous solutions standing at room temperature. The conditions noted are these: for Appearance of solution: undiluted. It is filed as physicochemical.
Data set [3] in a line: Solubility testing in water by portionwise addition until saturation. It is filed as physicochemical. On the procedure:
The solubility of compounds 2-4 was determined by portionwise addition of the compounds to water until saturation was obtained. Water (10 mL) was added to a 20-mL vial. About 100 mg of Compound 2 was added. The suspension was stirred at room temperature for 20 minutes until the contents became a clear solution. Compound 2 (˜100 mg portionwise) was added repeatedly with 30 min stirring time between the additions. Once a suspension was obtained after continuous stirring for 2 hours, the suspension was stirred overnight. The same procedure was used for the suspension preparations of Compound 3 and Compound 4.
After stirring overnight, filtration of each sample was attempted.
An aliquot of the suspension of Compound 2 was filtered through a 0.22 micron inline syringe filter.
About 1 mL of the aqueous solutions prepared above was diluted with water by 50%. The pH of the 50% diluted solutions was adjusted to pH 7 either by 0.1 N HCl or by 0.1 N NaOH. Solubility values for the three compounds in the solutions/suspensions before and after dilution are given in the in TABLE 3.
The solubility of Compounds 2-4 was determined by portionwise addition of the compounds to water until saturation was obtained. After stirring overnight, the suspensions were filtered and analyzed by HPLC. […] The solubility of Compound 3 was >200 mg/mL. The absolute solubility of Compound 3 was not determined because in the course of analysis, the solution of Compound 3 became too viscous to stir. […] The 50% diluted solutions of Compounds 2-4 were not viscous, and the compounds remained in solution for 4 weeks. […] All of the diluted solutions were easily syringable over 4 weeks' time.

Data set [4] is described as follows: Syringability testing (200 g weight on BD 1-mL syringe plunger, 27 G needle). The format is physicochemical. The conditions noted are these: for Syringability: time to expel 1 mL: 50% diluted solution. How it is done: Syringability testing was carried out by applying 200 g of weight on top of a BD 1-mL syringe plunger and measuring the time required to expel 1 mL of the saturated solutions through a 27 G needle. The times are recorded in TABLE 4. At T=0, 43 seconds were required to expel 1 mL of Compound 2, while 8 seconds were required to expel 1 mL of Compound 4. In contrast, approximately 5 minutes were required to expel only 0.1 mL of Compound 3, based on the very high viscosity of the solution relative to that of the other two.
Syringability test results of the 50% diluted solutions (TABLE 5) indicated a slight increase in viscosity (syringability test for water was 10 sec). All three solutions remained easily syringable.

The structures appear in SMILES notation. “Also recorded” adds a separate entry of the source.

As usually defined, the solubility is how much of the substance goes into solution per volume. With `COC(=O)N[C@@H](Cc1ccccc1)C(=O)N(C)[C@@H](Cc1ccc(NS(=O)(=O)[O-])cc1)c1csc(-c2cccs2)n1.[Na+]` [Compound 3, sodium (4-{(S)-2-{(S)-2-[(methoxycarbonyl)amino]-N-methyl-3-phenylpropanamido}-2-[2-(thiophen-2-yl)thiazol-4-yl]ethyl}phenyl)sulfamate], the HPLC purity came to 97.9% in data set [1] (50% diluted samples, room temperature, T = 4 weeks); 99.08% in data set [1] (undiluted samples, T = 0 (dry sample)); 97.3% in data set [1] (undiluted samples, room temperature, T = 5 weeks); 98.26% in data set [1] (undiluted samples, room temperature, T = 1 day). Besides, the “pAkt signal above control” value with phospho-Akt1 (pAkt) (HUVECs, 30 μM, 30 minutes treatment) was 80%. For the same molecule, the “Relative potencies for activation of pAkt” value in the data set with phospho-Akt1 (pAkt) (HUVECs, 3, 10 and 30 μM) was “Compound 2>Compound 4>Compound 3”. For the same molecule, in data set [2] (throughout the 4-week study period (Compound 2: over 5 weeks)), the “Gelation or precipitation of undiluted solution” value is “No gelation or precipitation”. The Appearance of solution result in data set [2] (T = 0), in data set [2] (T = 2 week), in data set [2] (T = 3 week), in data set [2] (T = 4 week), in data set [2] (T = 1 day) and in data set [2] (T = 2 day) was “Hazy” each time. In addition, the Appearance of solution result in data set [2] (T = 3 day), in data set [2] (T = 4 day), in data set [2] (T = 5 day) and in data set [2] (T = 6 day) was “Hazy” in each case. Also, the “Physical state of the preparation” value is on record as “(solution)” in data set [3] (50% dilution, T = 4 weeks) and “(viscous solution)” in data set [3] (Before dilution, T = 0). Further, in data set [3] (Before dilution, T = 5 weeks, room temperature), the “Solubility value in water” value was “No change*”. Also, the “Amount (g) of compound added until saturation” value in data set [3] (added portionwise to 10 mL water, room temperature) is on record as 2.323 g. Moreover, in data set [3] (after portionwise addition to 10 mL water), the Physical appearance entry is “hazy, highly viscous mixture; also recorded: No precipitate”. The Filtration entry in data set [3] (filtration of the sample attempted after stirring overnight) was “not filtered successfully and No”. The solubility at 4 weeks in data set [3] (water, pH 7, aqueous buffer, 50% dilution with water, adjusted to pH 7, T = 4 weeks) is > 115 mg/mL. Also, the solubility at 0 weeks in data set [3] (water, thermodynamic from solid, Before dilution, T = 0, estimated from weight added) was > 230 mg/mL. Besides, the solubility in data set [3] (water, thermodynamic from solid, Conclusions: suspensions stirred overnight, filtered and analyzed by HPLC, initial) is > 200 mg/mL. Besides, the “Syringability: time to expel 1 mL” value in data set [4] (T = 2 week) is 12 s; in data set [4] (T = 3 week) it was 13 s; in data set [4] (T = 4 week) it was 15 s; in data set [4] (T = 2 day) it was 13 s; in data set [4] (T = 3 day), 14 s; in data set [4] (T = 4 day), 17 s. Further, the “Syringability: time to expel 1 mL” value in data set [4] (T = 7 day) was 15 s. Besides, in data set [4] (undiluted solutions), the “Syringability of the saturated solutions (in words)” value is on record as “too viscous to syringe”.

For the molecule `CCc1csc([C@H](Cc2ccc(NS(=O)(=O)O)cc2)NC(=O)[C@H](Cc2ccccc2)NC(=O)OC)n1` [Compound 5, 4-{(S)-2-[(S)-2-(methoxycarbonylamino)-3-phenylpropanamido]-2-(4-ethylthiazol-2-yl)ethyl}phenylsulfamic acid, reference compound], in the data set with phospho-Akt1 (pAkt) (HUVECs, highest dose 10 μM, two separate experiments), the “pAkt levels above control” value stood at 278%.
